Target: Recombinant human HSD17B13 (Homo sapiens (Human), UniProt Q7Z5P4)
Assay: HSD17B13 rapid-fire mass spectrometry assay (RF/MS assay)
Assay type: biochemical
Conditions: inhibition of HSD17B13; LTB4 10 μM, NAD+ 0.5 mM, RT 3 h; IC50 ranges A-E
Method in brief: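 Sf9-expressed human HSD17B13 (80 nM) with 10 μM LTB4 and 0.5 mM NAD+, incubated with compound (0–100 μM) for 3 h at RT in Tris pH 7.5/BSA/Tween-20. After formic acid quench, LTB4 conversion to 12-oxo-LTB4 measured by RapidFire MS/MS. IC50 from normalised residual activity, duplicates.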

Recombinant human HSD17B13, sequence (Q7Z5P4 20-300): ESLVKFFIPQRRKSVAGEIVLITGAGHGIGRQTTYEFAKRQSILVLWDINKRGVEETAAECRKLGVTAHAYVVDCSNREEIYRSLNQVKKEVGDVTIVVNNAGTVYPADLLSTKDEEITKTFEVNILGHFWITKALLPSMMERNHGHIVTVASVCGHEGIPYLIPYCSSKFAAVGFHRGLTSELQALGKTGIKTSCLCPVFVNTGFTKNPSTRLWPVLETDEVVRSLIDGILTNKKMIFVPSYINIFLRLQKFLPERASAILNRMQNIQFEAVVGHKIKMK

| Structure (SMILES) | IC50 [nM] |
| --- | --- |
| COc1cc(C(=O)O)c(F)cc1NS(=O)(=O)c1ccn(-c2ccc([C@H]3CC[C@@H](C(F)(F)F)CC3)cc2)n1 [Example 691] | 100 to 500 |
| COc1cc(C(=O)O)c(F)cc1NS(=O)(=O)c1ccn(-c2ccc([C@H]3CC[C@H](C(F)(F)F)CC3)cc2)n1 [Example 692] | 100 to 500 |
| COc1cc(C(=O)O)c(F)cc1NS(=O)(=O)c1ccn(-c2ccc([C@H]3CC[C@@H](C(C)C)CC3)cc2)n1 [Example 693] | 100 to 500 |
| COc1cc(C(=O)O)c(F)cc1NS(=O)(=O)c1ccn(-c2ccc([C@H]3CC[C@H](C(C)C)CC3)cc2)n1 [Example 694] | < 100 |
| COc1cc(C(=O)O)c(NC(C)=O)cc1NS(=O)(=O)c1csc(-c2ccc(C3CCC(C)(C)CC3)cc2C(F)(F)F)n1 [Example 695] | 1000 to 100000 |
| COc1cc(C(=O)O)c(Cl)cc1NS(=O)(=O)c1csc(-c2ccc(C3CCC(C)(C)CC3)cc2C(F)(F)F)n1 [Example 696] | 500 to 1000 |
| CN(C)c1cc(C(=O)O)ccc1NS(=O)(=O)c1csc(-c2ccc(C3CCC(C)(C)CC3)cc2C(F)(F)F)n1 [Example 697] | 1000 to 100000 |
| COc1cc(C(=O)O)c(C2=CCCC2)cc1NS(=O)(=O)c1csc(-c2ccc(C3CCC(C)(C)CC3)cc2C(F)(F)F)n1 [Example 698] | 1000 to 100000 |
| COc1cc(C(=O)O)c(C2CC2)cc1NS(=O)(=O)c1csc(-c2ccc(C3CCC(C)(C)CC3)cc2C(F)(F)F)n1 [Example 699] | 1000 to 100000 |
| COc1cc(C(=O)O)c(F)cc1NS(=O)(=O)c1ccc2nc(-c3ccc(C4CCC(C)(C)CC4)cc3)sc2c1 [Example 700] | 1000 to 100000 |
| COc1cc(C(=O)O)c(NS(C)(=O)=O)cc1NS(=O)(=O)c1csc(-c2ccc(C3CCC(C)(C)CC3)cc2C(F)(F)F)n1 [Example 701] | 1000 to 100000 |
| COc1cc(C(=O)O)c(C)cc1NS(=O)(=O)c1csc(-c2ccc(C3CCC(C)(C)CC3)cc2C(F)(F)F)n1 [Example 702] | 1000 to 100000 |
| COc1cc(C(=O)O)c(F)cc1NS(=O)(=O)c1ccc2sc(-c3ccc(C4CCCCC4)cc3C(F)(F)F)nc2c1 [Example 703] | 500 to 1000 |
| COc1cc(C(=O)O)c(F)cc1NS(=O)(=O)c1ccc2sc(-c3ccc(C4CCC(C)(C)CC4)cc3C(F)(F)F)nc2c1 [Example 704] | 100 to 500 |
| CNc1cc(C(=O)O)ccc1NS(=O)(=O)c1csc(-c2ccc(C3CCC(C)(C)CC3)cc2C(F)(F)F)n1 [Example 705] | 1000 to 100000 |
| CCCCC[C@H]1CC[C@H](c2ccc(-c3nc(S(=O)(=O)Nc4cc(F)c(C(=O)O)cc4OC)cs3)cc2)CC1 [Example 706] | < 100 |
| CCCCC[C@H]1CC[C@H](c2ccc(-c3nc(S(=O)(=O)Nc4ccc(C(=O)O)cc4OC)cs3)c(F)c2)CC1 [Example 707] | 100 to 500 |
| COc1cc(C(=O)O)ccc1NS(=O)(=O)c1cnc(-c2ccc(C3=CC(C)(C)CC(C)(C)C3)cc2)s1 [Example 708] | 100 to 500 |
| CCC[C@H]1CC[C@H](C2CC=C(c3ccc(-c4ncc(S(=O)(=O)Nc5ccc(C(=O)O)cc5OC)s4)cc3)CC2)CC1 (some centres unmarked) [Example 709] | 1000 to 100000 |
| COc1cc(C(=O)O)ccc1NS(=O)(=O)c1cnc(-c2ccc(-c3ccc(C(F)(F)F)c(C(F)(F)F)c3)cc2)s1 [Example 710] | 100 to 500 |
| COc1cc(C(=O)O)ccc1NS(=O)(=O)c1cnc(-c2ccc(C3=C[C@H]4CC[C@]3(C)C4(C)C)cc2)s1 [Example 711] | 100 to 500 |
| COc1cc(C(=O)O)ccc1NS(=O)(=O)c1cnc(-c2ccc([C@H]3CC[C@@H](C(F)(F)F)CC3)cc2)s1 [Example 712] | < 100 |
| COc1cc(C(=O)O)ccc1NS(=O)(=O)c1cnc(-c2ccc([C@H]3CC[C@H](C(F)(F)F)CC3)cc2)s1 [Example 713] | < 100 |
| COc1cc(C(=O)O)ccc1NS(=O)(=O)c1cnc(-c2ccc(-c3ccc(C(F)(F)C(F)(F)F)cc3)cc2)s1 [Example 714] | 100 to 500 |
| CCC[C@H]1CC[C@H](c2ccc(-c3nc(S(=O)(=O)Nc4cc(F)c(C(=O)O)cc4OC)cs3)cc2)CC1 [Example 715] | < 100 |
| COc1cc(C(=O)O)ccc1NS(=O)(=O)c1csc(-c2ccc(C3=CCC(C(F)(F)F)CC3)cc2)n1 (centres unmarked) [Example 716] | < 100 |
